Reference: patent US12116343B2, “Inhibitors of APOL1 and methods of using same” (Vertex Pharmaceuticals Incorporated, priority 2020, dated 2024)

Biological target: T1, APOL1 G1 Protein (Homo sapiens, UniProt O14791, I384M/S342G)
T1 sequence (O14791 28-398 S342G/I384M): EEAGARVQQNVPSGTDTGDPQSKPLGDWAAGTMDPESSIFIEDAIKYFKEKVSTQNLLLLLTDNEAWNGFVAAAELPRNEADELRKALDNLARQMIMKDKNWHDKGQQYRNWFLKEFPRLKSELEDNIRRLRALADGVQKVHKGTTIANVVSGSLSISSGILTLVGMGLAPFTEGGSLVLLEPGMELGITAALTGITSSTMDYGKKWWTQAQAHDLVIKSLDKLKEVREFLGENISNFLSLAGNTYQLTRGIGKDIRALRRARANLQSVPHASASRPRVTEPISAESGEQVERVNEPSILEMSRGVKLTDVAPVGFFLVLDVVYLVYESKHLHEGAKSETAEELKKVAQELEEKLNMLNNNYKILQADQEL
Assay: Trypanosoma brucei brucei lysis assay using APOL1 recombinant protein (AlamarBlue viability)
Format: cell-based
Conditions: Trypanosoma brucei brucei lysis, recombinant APOL1, AlamarBlue; read-out: Trypanosoma Assay (IC50)
Text: Trypanosoma brucei brucei is a blood stream parasite to which human, gorillas and baboon are immune due to the presence of the APOL1 protein in their HDL particles. The protein is uptaken by the parasite via the TbHpHb receptor located in its flagellar pocket and is bonded by the Hpr protein contained in the HDL particles which triggers the receptor endocytosis by the parasite.
Following endocytosis, the formed vesicle containing the HDL particle matures from early to late endosome, and subsequently to lysosome. The concomitant pH change in the lumen of the vesicle triggers the insertion of the APOL1 protein into the membrane of the late endosome/lysosome and hereby triggers lysosomal membrane premeabilisation and as a further downstream event, trypanosome lysis. Trypanosoma brucei brucei is sensitive to lysis by all three APOL1 variants (G0, G1, and G2).
The Trypanosoma brucei brucei lysis assay is a lysis assay of the parasite using recombinant APOL1 protein variant followed by a fluorescent detection method of viability by the addition of AlamarBlue reagent to the assay well, a general metabolic redox indicator (AlamarBlue assay).
Briefly, the AlamarBlue active compound, the resazurin, a blue, water soluble, non-toxic and cell permeable molecule, which can be followed by absorbance, is reduced by various metabolic pathways into resorufin, a red compound which can be followed by either absorbance or fluorescence. The assay allows the calculation of the percent viability (percent of living Trypanosomes remaining in each well) at the end of a lysis relative to the untreated condition by interpolation of fluorescent values (FLU) on a standard curve with a known amount of seeded trypanosome/well.
Trypanosoma brucei brucei (ATCC, Cat. No. PRA-382) • Lister 427 VSG 221 bloodstream form.
Thaw/Expansion Media (ATCC Medium 2834 Modified HMI-9 Medium)
Assay Media (No Phenol Red/No FBS): Make on Day of Use
Hypoxanthine Stock (100×)-9 (10×)
Equipment • El-Clip Tip pipette 12 channel adjustable 2-125 μL, Cat. No. 4672070BT • ThermoFisher MultiDrop 384, Cat. No. 5840300 • Multidrop • Agilent Bravo, Cat. No. G5409A • Bravo • SpectraMax M5
Assay Ready Plates (ARPs) • ARPs comes in two formats: • […] final top concentration with a 2.5 fold dilution down. • […] final top concentration with a 3 fold dilution down. • Both have a 10 point Dose response. • 0.1% DMSO final in the Black Assay Plate. • Compounds are diluted 1000 fold in the Black Assay Plate. • Each plate is designed for 14 compounds in duplicate. • In the final Black Assay Plate:
Trypanosoma brucei brucei Culture
Step 2, Day 4 • Centrifuge at 800×g for 5 minutes at room temperature. • Resuspend in 1 mL media. • Make a 1:25 fold dilution (10 μL/240 μL media). • Count on a hemocytometer (after adding parasites). • Let sit for 1-2 minutes for the parasites to settle. • Count should be approximately 100 viable motile parasites/16 grid or approximately 25×10^6 parasites/flask. • Passage the parasites by adding 1×10^6 parasites/T75 flask in 20 mL media. • Passage the parasites by adding 2.33×10^6 parasites/T175 flask in 46.6 mL media. • For every T75 flask should make enough for approximately 1.5×384 well assay plates. • For every T175 flask should make enough for approximately 3.8×384 well assay plates.
Step 3, Day 6 • Centrifuge at 800×g for 5 minutes. • Resuspend in 3 mL assay media (No phenol red, no FBS) per 75 starting flask. • Resuspend in 7 mL assay media (No phenol red, no FBS) per 175 flask • Make a 1:25 fold dilution. • Count by hemocytometer. • Every T75 flask set up should have approximately 75×10^6 parasites/flask (verify doubling time=8.7 hrs±1 hr). • Every T175 flask set up should have approximately 175×10^6 parasites/flask (verify doubling time=8.7 hrs±1 hr). • Require 46×10^6 parasites per 384 well plate (at 120,000 parasites per well). Protocol B […]

Row | SMILES | IC50
1 | O=C([C@H]1C[C@H](c2c(-c3ccc(F)cc3)[nH]c3c(F)cc(F)cc32)C1)N1C[C@@H]2[C@@H](CO)[C@@H]2C1 [Compound 99] | > 1 µM
2 | CC(C)[C@@H](CO)NC(=O)[C@H]1C[C@H](c2c(-c3ccc(F)cc3)[nH]c3c(F)cc(F)cc32)C1 [Compound 141] | 0.25 to 1 µM
3 | O=C([C@H]1C[C@H](c2c(-c3ccc(F)cc3)[nH]c3c(F)cc(F)cc32)C1)N1CC(OCC2CCCO2)C1 (stereo partly shown) [Compound 136] | > 1 µM
4 | O=C1CCC(NC(=O)[C@H]2C[C@H](c3c(-c4ccc(F)cc4)[nH]c4c(F)cc(F)cc43)C2)C1 (stereo partly shown) [Compound 159] | > 1 µM
5 | CC(O)CN(CCO)C(=O)[C@H]1C[C@H](c2c(-c3ccc(F)cc3)[nH]c3c(F)cc(F)cc32)C1 (mixture of isomers) [Compound 129] | < 0.25 µM
6 | NC(=O)[C@H]1C[C@H](c2c(-c3ccc(F)cc3)[nH]c3c(F)cc(F)cc32)C1 [Compound 169] | < 0.25 µM
7 | O=C([C@H]1C[C@H](c2c(-c3ccc(F)cc3)[nH]c3c(F)cc(F)cc32)C1)N1CCC[C@@H](CO)C1 [Compound 109] | > 1 µM
8 | C[C@H]1CN(C(=O)[C@H]2C[C@H](c3c(-c4ccc(F)cc4)[nH]c4c(F)cc(F)cc43)C2)CC[C@@H]1O [Compound 116] | > 1 µM
9 | O=C([C@H]1C[C@H](c2c(-c3ccc(F)cc3)[nH]c3c(F)cc(F)cc32)C1)N1CC[C@H](CO)C1 [Compound 140] | > 1 µM
10 | CCC(O)(CCCO)CNC(=O)[C@H]1C[C@H](c2c(-c3ccc(F)cc3)[nH]c3c(F)cc(F)cc32)C1 (stereo partly shown) [Compound 119] | > 1 µM
